Measurements published in article PMC3366684, “Studies on the Synthesis of Derivatives of Marine-Derived Bostrycin and Their Structure-Activity Relationship against Tumor Cells” (Marine Drugs, 2012).

How the values were obtained:
MCF-7 cells = experiment: MTT cytotoxicity assay, MCF-7; type: cell-based, human; conditions: MCF7; human breast cancer cell line; MTT, 48 h exposure; mean ± SD, three independent experiments
Protocol: (§1) All compounds were evaluated for their in vitro cytotoxic activity against five human cancer cell lines including human breast MCF-7, human breast MDA-MB-435, human lung A549, human liver HepG2 and human colon HCT-116, and compared with their effects on the immortalized human breast epithelial cell line MCF-10A by MTT assay using epirubicin (an anticancer drug used widely in the clinic) as positive control.
(§2) MCF-7, MDA-MB-435, A549, HepG2 and HCT-116 cells were cultured in Dulbecco’s modification Eagle’s medium (DMEM, Invitrogen, Carlsbad, CA, USA) supplemented with 10% fetal bovine serum (FBS, Hyclone, Logan, UT, USA), 2 mM L-glutamine, 100 μg/mL streptomycin and 100 U/mL penicillin (Invitrogen). MCF-10A cells were cultured in keratinocyte serum free medium (KSFM) supplemented with 0.1–0.2 ng/mL human recombinant epidermal growth factor and 20–30 μg/mL bovine pituitary extract (Invitrogen). The cells were incubated at 37 °C in a humidified atmosphere with 5% CO2.
(§3) Cells were harvested during logarithmic growth phase and seeded in 96-well plates at a density of 1 × 10^4 cells/mL, and cultured at 37 °C in a humidified incubator (5% CO2) for 24 h, followed by exposure to various concentrations of compounds tested for 48 h. Subsequently 20 μL of MTT (Genview, Houston, TX, USA) solution (5 mg/mL) was added to each well and mixed, the cells were then incubated for an additional 4 h. Culture supernatant was moved, 150 μL of DMSO (Sangon Biotech, Shanghai, China) was added to each well to fully dissolve the MTT-formazan crystals. Cell growth inhibition was determined by measuring the absorbance (Abs) at λ = 570 nm using a microplate reader and calculated according to the following equation:
(§4) Growth inhibition = (1 − OD of treated cells/OD of control cells) × 100%
(§5) The half maximal inhibitory concentrations (IC50) were obtained from liner regression analysis of the concentration-response curves plotted for each tested compound.

MDA-MB-435 cells = experiment: MTT cytotoxicity assay, MDA-MB-435; type: cell-based, human; conditions: MDA-MB-435; human breast cancer cell line; MTT, 48 h exposure; mean ± SD, three independent experiments
Protocol: as §1, §2, §3, §4, §5

A549 cells = experiment: MTT cytotoxicity assay, A549; type: cell-based, human; conditions: A549; human lung cancer cell line; MTT, 48 h exposure; mean ± SD, three independent experiments
Protocol: as §1, §2, §3, §4, §5

HepG2 cells = experiment: MTT cytotoxicity assay, HepG2; type: cell-based, human; conditions: Homo sapiens, HepG2, 48 h, human liver cancer cell line; MTT, 48 h exposure; mean ± SD, three independent experiments
Protocol: as §1, §2, §3, §4, §5

HCT-116 cells = experiment: MTT cytotoxicity assay, HCT-116; type: cell-based, human; conditions: HCT-116; human colon cancer cell line; MTT, 48 h exposure; mean ± SD, three independent experiments
Protocol: as §1, §2, §3, §4, §5

[1] = MTT cytotoxicity assay, MCF-10A; type: cell-based; conditions: MCF-10A cells, immortalized human breast epithelial cell line, 48 h exposure, mean ± SD, three independent experiments
Protocol: as §1, §2, §3, §4, §5

[2] = test system: five human cancer cell lines (MCF-7, MDA-MB-435, A549, HepG2, HCT-116); experiment: MTT cytotoxicity assay, panel of five human cancer cell lines (summary statements); type: cell-based; conditions: MCF-7, MDA-MB-435, A549, HepG2 and HCT-116, read-out: IC50 against the tested human cancer cell lines (summary over the panel)
Protocol: as §1, §2
Cells were harvested during logarithmic growth phase and seeded in 96-well plates at a density of 1 × 10^4 cells/mL, and cultured at 37 °C in a humidified incubator (5% CO2) for 24 h, followed by exposure to various concentrations of compounds tested for 48 h. […] Cell growth inhibition was determined by measuring the absorbance (Abs) at λ = 570 nm using a microplate reader and calculated according to the following equation: […]

SMILES	IC50 (MCF-7 cells)	IC50 (MDA-MB-435 cells)	IC50 (A549 cells)	IC50 (HepG2 cells)	IC50 (HCT-116 cells)	IC50 at 48 h [1]	melting point	IC50 [2]
CCCCCCSC1=C(SCCCCCC)C(=O)c2c(O)c3c(c(O)c2C1=O)C[C@](C)(O)[C@H](O)[C@H]3O [Compound 25, 6,7-bis(n-Hexylthio)-6-demethoxybostrycin]	2.6 ± 0.45 µM	10.6 ± 1.11 µM	0.71 ± 0.01 µM	3.33 ± 0.66 µM	0.74 ± 0.1 µM	35 ± 1.94 µM	112 to 113 °C	
COC1=CC(=O)c2c(O)c3c(c(O)c2C1=O)C[C@]1(C)OC(C=C(C)C)O[C@@H]1[C@H]3O (stereo partly drawn) [Compound 6, 2,3-O-(3′-methylbut-2′-enyl) Bostrycin]	7.99 ± 0.09 µM	11.7 ± 1.18 µM	5.5 ± 0.24 µM	22.3 ± 2.89 µM	7.83 ± 0.32 µM	34.1 ± 0.85 µM	200 to 201 °C	
COc1cc(O)c2c(c1O)C(=O)c1cc(C)ccc1C2=O [Compound 4, Austrocortinin]	> 50 µM	41.6 ± 2.63 µM	> 50 µM	> 50 µM	> 50 µM	> 50 µM	232 to 233 °C	> 50 µM
CCCNC1=CC(=O)c2c(O)c3c(c(O)c2C1=O)C[C@](C)(O)[C@H](O)[C@H]3O [Compound 10, 6-(n-Propylamino)-6-demethoxybostrycin]	14 ± 0.98 µM	> 50 µM	21.5 ± 1.43 µM	18 ± 0.6 µM	26.4 ± 0.89 µM	> 50 µM	210 to 211 °C	
COC1=CC(=O)c2c(O)c3c(c(O)c2C1=O)C[C@]1(C)OC(=O)O[C@@H]1[C@H]3O [Compound 8, 2,3-O-(carbonyl) Bostrycin]	1.59 ± 0.16 µM	1.26 ± 0.12 µM	0.52 ± 0.02 µM	3.32 ± 0.58 µM	2.92 ± 0.06 µM	21.7 ± 1.45 µM	246 to 247 °C	
CCSC1=C(SCC)C(=O)c2c(O)c3c(c(O)c2C1=O)C[C@](C)(O)[C@H](O)[C@H]3O [Compound 23, 6,7-bis(Ethylthio)-6-demethoxybostrycin]	0.71 ± 0.01 µM	0.76 ± 0.06 µM	4.07 ± 0.51 µM	6.9 ± 0.26 µM	0.95 ± 0.06 µM	14.8 ± 0.96 µM	180 to 181 °C	
COC1=CC(=O)c2c(cc3c(c2O)C[C@@H](O)[C@@](C)(O)C3)C1=O [Compound 3, Nigrosporin B]	6.19 ± 0.6 µM	2.91 ± 0.18 µM	4.72 ± 0.17 µM	31 ± 0.71 µM	4.7 ± 0.39 µM	28.6 ± 0.91 µM	> 300 °C	
CCCCNC1=CC(=O)c2c(O)c3c(c(O)c2C1=O)C[C@](C)(O)[C@H](O)[C@H]3O [Compound 11, 6-(n-Butylamino)-6-demethoxybostrycin]	1.08 ± 0.21 µM	> 50 µM	25.1 ± 0.74 µM	35.7 ± 1.29 µM	36.5 ± 0.53 µM	> 50 µM	236 to 237 °C	
